Here are results for one compound from patent US20040220297A1, “Self curing cements” (priority 1999, published 2004).

A short description of the data set: Cytotoxicity tests. The format is cell-based.

In the case of `CCCCCCCC/C=C\CCCCCCCC(=O)OCc1ccc(N(C)C)cc1` [DMAO, 4-N,N-dimethylaminobenzyloleate], the cytotoxicity result is “non-toxic”.
